Experimental data published in patent US20060177474A1, “Agricultural and horticultural poison bait preparation” (priority 2005, published 2006).

| melting point [°C] | SMILES |
| --- | --- |
| 153 to 155 | Cc1cc(C(F)(C(F)(F)F)C(F)(F)F)ccc1NC(=O)c1cccc(Br)c1C(=O)NC(C)CS(C)(=O)=O (stereo not shown) |
| 82 | Cc1cc(C(F)(C(F)(F)F)C(F)(F)F)ccc1N(C(=O)c1c(I)cccc1C(N)=O)C(C)CS(C)(=O)=O (stereo not shown) [compound 27, 3-iodo-N′-{2-methyl-4-[1,2,2,2-tetrafluoro-1-(trifluoromethyl)ethyl]phenyl}-N^2-(1-methyl-2-methylsulfonylethyl)phthalamide] |
| 134 | Cc1cc(C(F)(C(F)(F)F)C(F)(F)F)ccc1NC(=O)c1cccc(I)c1C(=O)NC(C)C[S+](C)[O-] (stereo not shown) [compound 28, 3-iodo-N^1-{2-methyl-4-[1,2,2,2-tetrafluoro-1-(trifluoromethyl)ethyl]phenyl}-N^2-(1-methyl-2-methylsulfinylethyl)phthalamide] |
| 155 to 156 | Cc1cc(C(F)(C(F)(F)F)C(F)(F)F)ccc1N(C(=O)c1cccc(Cl)c1C(N)=O)C(C)CS(C)(=O)=O (stereo not shown) [compound 37, 3-chloro-N^1-{2-methyl-4-[1,2,2,2-tetrafluoro-1-(trifluoromethyl)ethyl]phenyl}-N^1-(1-methyl-2-methylsulfonylethyl)phthalamide] |
